Columns and labels:
Assay type in all cases: cell-based, mouse
ES cells = experiment: Cytosolic calcium measurement (fura-2) in ES cells; conditions: Ca2+-free medium
Protocol: It has been reported that calreticulin can regulate inositol 1,4,5-trisphosphate (InsP3)-mediated calcium signaling in Xenopus oocytes^9. To more specifically examine the role of calreticulin in the storage and mobilization of calcium from InsP3-sensitive stores, we challenged ES cells with lysophosphatidic acid (LPA, 100 nM), which induces InsP3 release12 via heterotrimeric G-protein -mediated activation of phospholipase C. […] The magnitude of this transient was indistinguishable in parental and clone 29 cells (FIG. 4b). […] These observations imply that the stores depleted by LPA represent a subset of the thapsigargin-sensitive compartment.
To measure cytosolic free calcium, the cells were loaded with fura-2 by incubation with 0.5-10 μM of the precursor acetoxymethyl ester for 20 min. at 37° C. Fura-2 ratio fluorescence measurements were performed on a Nikon Diaphot TMD microscope (Nikon Canada) equipped with a 100 W Xenon lamp, a shutter/rotating mirror/fiber optic assembly (RatioMaster, Photon Technologies), a Fluor 40x/1.3 oil-immersion objective and a high-sensitivity photometer (D-104, PTI) interfaced to a 386 computer (NEC) via a 12 bit A/D board (Labmaster, National Instruments). […] The intracellular concentration of fura-2 was measured at the isosbestic wavelength (360 nm) and compared to standards. […]

wild-type ES cells = experiment: Serum-free cell attachment assay on fibronectin, wild-type ES cells; conditions: peptide 0.5-1 mg/ml, antiserum 10 μg/ml
Protocol: The adhesive capacities of the ES cell clones were assessed by quantitative cell attachment assays on fibronectin and laminin under serum-free conditions. […] ES cells lacking calreticulin also were impaired in their ability to adhere to anti-alpha5 beta1 integrin antibodies (FIG. 2a). The heterozygous clone (#34) was generally intermediate in its level of adhesion. None of the clones tested adhered to vitronectin (FIG. 2a). […] To ensure that the observed differences in cell adhesion were not due to differences in the level of expression of the relevant integrins, the cell surface levels of alpha5 beta1, alpha4, alpha6 and alphav beta3 integrins were assessed by flow cytometry. All clones tested expressed similar levels of integrin subunits (FIG. 2c).
Serum-free adhesion assays are described elsewhere^5. 0.5-1 mg/ml GRGDSP [SEQ ID No: 1] or GRGESP [SEQ. ID No: 2] peptide (Gibco/BRL), 10 μg/ml rabbit anti-fibronectin receptor (Gibco/BRL) or 10 μg/ml rat anti-alpha6 (GoH3, AMAC, Inc.) was added where indicated. For flow cytometric analysis of integrin expression, 1×10^6 cells were incubated on ice for 30 min. with primary antibody; anti-FNR, anti-VNR (Gibco/BRL), anti-alpha6 (GoH3) or anti-alpha429 in PBS/0.1% sodium azide/2.0% fetal bovine serum. […] Cells were fixed in PBS/1.0% paraformaldehyde, pelleted, resuspended in PBS and analyzed on a FACScan (Becton Dickinson Immunocytometry Systems).

[1] = test system: calreticulin knock-out ES cells; experiment: Adhesion of calreticulin knock-out ES cells to fibronectin
Protocol: FIG. 4E Adhesion assays to Fibronectin as in FIG. 6. Where indicated 100 nM LPA or 100 nM Tg and anti-FNR antiserum (10 μg/ml) were added. Open bars, parental ES cells; closed bars, knock-out ES cells. All data are means +/− SEM of at least 3 experiments. It is conceivable that a transient increase in cytosolic [Ca^2+] shortly after integrin ligand binding is an important part of normal receptor post-occupancy events (eg. increases in avidity, cytoskeletal reorganization). To examine this possibility, we tested whether stimulation of down-stream events in integrin ‘outside-in’ signaling within calreticulin-null cells could compensate for their adhesion defect. […] Although not shown in FIG. 4, the response to LPA was dose-dependent. […] Serum-free adhesion assays are described elsewhere^5. 0.5-1 mg/ml GRGDSP [SEQ ID No: 1] or GRGESP [SEQ. ID No: 2] peptide (Gibco/BRL), 10 μg/ml rabbit anti-fibronectin receptor (Gibco/BRL) or 10 μg/ml rat anti-alpha6 (GoH3, AMAC, Inc.) was added where indicated. For flow cytometric analysis of integrin expression, 1×10^6 cells were incubated on ice for 30 min. with primary antibody; anti-FNR, anti-VNR (Gibco/BRL), anti-alpha6 (GoH3) or anti-alpha429 in PBS/0.1% sodium azide/2.0% fetal bovine serum. […] Cells were fixed in PBS/1.0% paraformaldehyde, pelleted, resuspended in PBS and analyzed on a FACScan (Becton Dickinson Immunocytometry Systems).

C/C=C(/C)C(=O)O[C@H]1C(C)=C2[C@H]([C@@H]1OC(=O)CCCCCCC)[C@@](C)(OC(C)=O)C[C@H](OC(=O)CCC)[C@@]1(O)[C@H]2OC(=O)[C@@]1(C)O [thapsigargin]
Net Ca2+ release after prior LPA (ES cells; added after LPA): induced a second, smaller burst of net Ca^2+ release

GRGDSP [GRGDSP peptides, (Gibco/BRL)]
Wild-type ES cell adhesion to fibronectin (wild-type ES cells): inhibited adhesion to fibronectin

lysophosphatidic acid [LPA]
Adhesion of calreticulin knock-out cells to fibronectin ([1]; 100 nM): significantly restored
Dose dependence of the adhesion response of calreticulin knock-out cells ([1]; data not shown in FIG. 4): dose-dependent
Cytosolic [Ca2+]i transient (ES cells; 100 nM, parental and clone 29 cells): induced a rapid [Ca2+]i transient
